Laboratory results: US10112929B2, “Lactams as inhibitors of rock” (BRISTOL-MYERS SQUIBB COMPANY, priority 2015, dated 2018)
Where a name gives a salt, the structure may show the parent alone.

Target: T1, ROCK2 (Homo sapiens (Human), UniProt O75116)
Test: not given
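Further: rho kinase enzyme reaction halted with EDTA, phospho- and non-phospho peptide separated for read-out, kinase activity inhibition derived across a dose-response series, DMSO under 2%.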

T1 sequence (O75116 whole entry, species assumed): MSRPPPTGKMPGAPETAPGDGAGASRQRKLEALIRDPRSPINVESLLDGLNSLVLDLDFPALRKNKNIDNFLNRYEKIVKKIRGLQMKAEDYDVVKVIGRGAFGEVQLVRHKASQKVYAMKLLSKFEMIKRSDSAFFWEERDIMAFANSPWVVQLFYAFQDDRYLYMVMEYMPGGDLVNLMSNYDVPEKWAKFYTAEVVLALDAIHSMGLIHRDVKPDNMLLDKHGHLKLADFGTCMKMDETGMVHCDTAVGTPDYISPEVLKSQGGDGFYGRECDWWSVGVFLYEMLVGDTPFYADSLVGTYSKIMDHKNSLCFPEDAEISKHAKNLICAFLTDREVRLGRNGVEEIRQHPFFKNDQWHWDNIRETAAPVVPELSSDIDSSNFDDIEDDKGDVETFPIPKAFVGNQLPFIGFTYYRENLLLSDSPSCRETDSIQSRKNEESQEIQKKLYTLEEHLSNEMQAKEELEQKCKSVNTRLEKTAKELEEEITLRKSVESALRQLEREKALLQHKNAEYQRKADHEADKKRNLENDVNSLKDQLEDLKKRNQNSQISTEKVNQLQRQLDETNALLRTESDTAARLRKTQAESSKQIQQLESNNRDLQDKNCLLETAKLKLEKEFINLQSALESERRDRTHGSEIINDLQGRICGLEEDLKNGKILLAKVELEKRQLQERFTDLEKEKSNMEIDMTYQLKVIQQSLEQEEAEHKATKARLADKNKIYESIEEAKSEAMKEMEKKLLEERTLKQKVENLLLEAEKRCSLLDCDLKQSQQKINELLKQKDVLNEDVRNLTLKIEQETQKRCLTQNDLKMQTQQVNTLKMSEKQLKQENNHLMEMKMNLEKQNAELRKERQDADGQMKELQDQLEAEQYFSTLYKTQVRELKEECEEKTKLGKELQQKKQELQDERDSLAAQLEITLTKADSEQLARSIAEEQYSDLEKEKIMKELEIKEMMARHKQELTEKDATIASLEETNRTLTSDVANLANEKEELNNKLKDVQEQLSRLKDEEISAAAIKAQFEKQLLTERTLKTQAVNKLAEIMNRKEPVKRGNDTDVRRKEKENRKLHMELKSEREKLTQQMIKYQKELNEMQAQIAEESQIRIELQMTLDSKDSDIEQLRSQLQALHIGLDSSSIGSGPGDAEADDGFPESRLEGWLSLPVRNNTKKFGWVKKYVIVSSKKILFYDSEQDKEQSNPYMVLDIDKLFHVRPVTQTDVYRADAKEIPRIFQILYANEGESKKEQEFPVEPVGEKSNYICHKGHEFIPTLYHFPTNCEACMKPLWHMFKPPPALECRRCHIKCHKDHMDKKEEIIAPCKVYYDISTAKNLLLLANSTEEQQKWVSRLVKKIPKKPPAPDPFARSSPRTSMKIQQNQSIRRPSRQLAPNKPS

Row | IC50 | Structure (SMILES)
1 | 10 to 100 nM | COc1cc(NC2CCN(c3ccc(-c4cn[nH]c4)cc3F)C2=O)ccc1F (single isomer, unassigned) [Example 331, 3-((4-fluoro-3-methoxyphenyl)amino)-1-(2-fluoro-4-(1H-pyrazol-4-yl)phenyl) pyrrolidin-2-one]
2 | < 10 nM | COc1cccc(NC2CCN(c3ccc(-c4cn[nH]c4)cn3)C2=O)c1 (single isomer, unassigned) [Example 86, 1-(5-(1H-pyrazol-4-yl)pyridin-2-yl)-3-((3-methoxyphenyl)amino)pyrrolidin-2-one]
3 | 10 to 100 nM | COc1cccc(NC2CCN(c3cc(F)c(-c4cn[nH]c4)cc3F)C2=O)c1 (single isomer, unassigned) [Example 354, 1-(2,5-difluoro-4-(1H-pyrazol-4-yl)phenyl)-3-((3-methoxyphenyl)amino)pyrrolidin-2-one]

Target: T1, ROCK2
Test: biochemical

Row | Structure (SMILES) | IC50
4 | CCc1nc(N2CCC(Nc3ccc(F)c(OCC4CC4)c3)C2=O)ccc1-c1cn[nH]c1 (single isomer, unassigned) [Example 211, 3-((3-(cyclopropylmelhoxy)-4-fluorophenyl)amino)-1-(6-ethyl-5-(1H-pyrazol-4-yl)pyridin-2-yl)pyrrolidin-2-one] | 10 to 100 nM
5 | COc1nc(N2CCC(N3CCC(F)(F)C3)C2=O)ccc1-c1cn[nH]c1 (racemic) [Example 284, 3,3-difluoro-1′-(6-methoxy-5-(1H-pyrazol-4-yl)pyridin-2-yl)-[1,3′-bipyrrolidin]-2′-one hydrochloride] | 100 to 2200 nM
6 | COc1cc(NC2CCN(c3ccc(-c4cn[nH]c4)c(C(F)(F)F)c3)C2=O)ccc1F (single isomer, unassigned) [Example 371, 1-(4-(1H-pyrazol-4-yl)-3-(trifluoromethyl)phenyl)-3-((4-fluoro-3-methoxyphenyl)amino)pyrrolidin-2-one] | 100 to 2200 nM
7 | COc1cccc(NC2CCN(c3ccc(-c4ccnc(N)n4)c(C)n3)C2=O)c1 (single isomer, unassigned) [Example 122, 1-(5-(2-aminopyrimidin-4-yl)-6-methylpyridin-2-yl)-3-((3-methoxyphenyl)amino) pyrrolidin-2-one] | 10 to 100 nM
8 | COc1nc(N2CCC(N3CCOc4ccccc43)C2=O)ccc1-c1cn[nH]c1 (racemic) [Example 225, 3-(2H-benzo[b][1,4]oxazin-4(3H)-yl)-1-(6-methoxy-5-(1H-pyrazol-4-yl)pyridin-2-yl)pyrrolidin-2-one] | < 10 nM
9 | COc1cccc(NC2CCN(c3ccc(-c4cn[nH]c4)c(OC(F)F)c3)C2=O)c1 (single isomer, unassigned) [Example 114, 1-(3-(difluoromethoxy)-4-(1H-pyrazol-4-yl)phenyl)-3-((3-methoxyphenyl)amino)pyrrolidin-2-one] | 10 to 100 nM
10 | COc1cccc(NC2CCN(c3cc(C)c(-c4cn[nH]c4)cn3)C2=O)c1 (racemic) [Example 200, 3-((3-methoxyphenyl)amino)-1-(4-methyl-5-(1H-pyrazol-4-yl)pyridin-2-yl)pyrrolidin-2-one] | 100 to 2200 nM
11 | COc1nc(N2CCC(N3CCc4ccccc4C3)C2=O)ccc1-c1cn[nH]c1 (racemic) [Example 277, 3-(3,4-dihydroisoquinolin-2(1H)-yl)-1-(6-methoxy-5-(1H-pyrazol-4-yl)pyridin-2-yl)pyrrolidin-2-one] | 100 to 2200 nM
12 | COc1nc(N2CCC(N3CCN(c4ccc(O)cc4)CC3)C2=O)ccc1-c1cn[nH]c1 (racemic) [Example 288, 3-(4-(44iydroxyphenyl)piperazin-1-yl)-1-(6-methoxy-5-(1H-pyrazol-4-yl)pyridin-2-yl)pyrrolidin-2-one] | 100 to 2200 nM
13 | COc1cc(NC2CCN(c3ccc(-c4cn[nH]c4)c(C)n3)C2=O)ccc1F (single isomer, unassigned) [Example 194, 3-((4-fluoro-3-methoxyphenyl)amino)-1-(6-methyl-5-(1H-pyrazol-4-yl)pyridin-2-yl)pyrrolidin-2-one] | 10 to 100 nM
14 | COc1cc(NC2CCN(c3cc(C)c(-c4cn[nH]c4)cn3)C2=O)ccc1F (single isomer, unassigned) [Example 209, 3-((4-fluoro-3-methoxyphenyl)amino)-1-(4-methyl-5-(1H-pyrazol-4-yl)pyridin-2-yl)pyrrolidin-2-one] | 100 to 2200 nM
15 | COc1nc(N2CCC(N3CCC(N(C)C)CC3)C2=O)ccc1-c1cn[nH]c1 (racemic) [Example 276, 3-(4-(dimethylamino)piperidin-1-yl)-1-(6-methoxy-5-(1H-pyrazol-4-yl)pyridin-2-yl)pyrrolidin-2-one] | 100 to 2200 nM
16 | O=C1[C@H](N2CCCc3ccccc32)CCN1c1ccc(-c2cn[nH]c2)cc1 [Example 394, (R)-1-(4-(1H-pyrazol-4-yl)phenyl)-3-(3,4-dihydroquinolin-1(2H)-yl)pyrrolidin-2-one] | 10 to 100 nM
17 | COc1cccc(NC2CCN(c3ccc(-c4cn[nH]c4)c(C)n3)C2=O)c1 (single isomer, unassigned) [Example 188, 3-((3-methoxyphenyl)amino)-1-(6-methyl-5-(1H-pyrazol-4-yl)pyridin-2-yl)pyrrolidin-2-one] | 10 to 100 nM

Next, values leading:

Row | IC50 | Structure (SMILES)
18 | 100 to 2200 nM | COc1ccc(NC2CCN(c3ccc(-c4cn[nH]c4)c(OC)c3)C2=O)c(F)c1 (single isomer, unassigned) [Example 152, 3-((2-fluoro-4-methoxyphenyl)amino)-1-(3-methoxy-4-(1H-pyrazol-4-yl)phenyl) pyrrolidin-2-one]
19 | 10 to 100 nM | COc1ccc(F)c(OC2CCN(c3ccc(-c4cn[nH]c4)cc3)C2=O)c1 (centres unmarked) [Example 111, 1-(4-(1H-pyrazol-4-yl)phenyl)-3-(2-fluoro-5-methoxyphenoxy)pyrrolidin-2-one]
20 | 100 to 2200 nM | O=C1C(Cc2ccccc2)CCN1c1ccc(-c2cn[nH]c2)cc1 (centres unmarked) [Example 92, 1-(4-(1H-pyrazol-4-yl)phenyl)-3-benzylpyrrolidin-2-one]
21 | 10 to 100 nM | COc1cccc2c1N(C1CCN(c3ccc(-c4cn[nH]c4)cc3)C1=O)CC2 (single isomer, unassigned) [Example 51, l-(4-(1H-pyrazol-4-yl)phenyl)-3-(7-methoxyindolin-1-yl)pyrrolidin-2-one]
22 | 100 to 2200 nM | O=C1C(NCc2ccccc2)CCN1c1ccc(-c2cn[nH]c2)cc1 (centres unmarked) [Example 57, 1-(4-(1H-pyrazol-4-yl)phenyl)-3-(benzylamino)pyrrolidin-2-one]
23 | 100 to 2200 nM | COc1cc(NC2CCN(c3ccc(-c4cn[nH]c4)c(OC)c3)C2=O)ccc1F (single isomer, unassigned) [Example 154, 3-((4-fluoro-3-methoxyphenyl)amino)-1-(3-methoxy-4-(1H-pyrazol-4-yl)phenyl) pyrrolidin-2-one]
24 | < 10 nM | CCOc1cccc(NC2CCN(c3ccc(-c4cn[nH]c4)cc3)C2=O)c1 (centres unmarked) [Example 6, 1-(4-(1H-pyrazol-4-yl)phenyl)-3-((3-ethoxyphenyl)amino)pyrrolidin-2-one]
25 | 100 to 2200 nM | COc1ccc(F)c(NC2CCN(c3ccc(-c4cn[nH]c4)c(C(F)(F)F)c3)C2=O)c1 (single isomer, unassigned) [Example 373, 1-(4-(1H-pyrazol-4-yl)-3-(trifluoromethyl)phenyl)-3-((2-fluoro-5-methoxyphenyl)amino)pyrrolidin-2-one]
26 | 100 to 2200 nM | COc1cccc(N(C)C2CCN(c3ccc(-c4cn[nH]c4)cc3)C2=O)c1 (single isomer, unassigned) [Example 31, 1-(4-(1H-pyrazol-4-yl)phenyl)-3-((3-methoxyphenyl)(methyl)amino)pyrrolidin-2-one]
